Measurements: patent US20240109836A1, “NON-HALL[…] ANALOGS FOR TREATMENT OF NEUROLOGICAL AND PSYCHIATRIC DISORDERS” (The Trustees of Columbia University in the City of New York, priority 2021, published 2024)

Tests used:
5-HT2B = 5-HT2B (Homo sapiens, UniProt P41595); test: IP1 agonist functional assay; type: cell-based
[1] = Head twitch response assay; type: in vivo, Mice (C57bl/6J); settings: mice, 1, 3, 10, and 30 mg/kg s.c., vs positive control DOI
Procedure: FIG. 2. […] N=5 mice in each cohort. […] Drugs were administered s.c.
Mice (C57bl/6J, 8-15 weeks, 26-33 g) were weighed and moved to the testing room 30 minutes prior to experimentation. Mice were administered the experimental compound at a selected dose s.c. and then immediately moved to a new cage. Before beginning the test, mice were allowed to remain in this cage for a set amount of time ranging 0-10 min based on the compound. The head twitch assay was performed by a trained observer watching the mouse for a 10 min duration and recording the total number of head twitches observed.
DOI was tested at the doses of 1, 3, 10 and 30 mg/kg (s.c., 5 mice per dose) and testing began immediately after administration of the compound. Ariadne (32), (29) and (38) were tested at the doses of 1, 3, 10, and 30 mg/kg (s.c., 5 mice per dose) and there was a 10 min interval between treatment and testing.

5-HT2A = 5-HT2A (Homo sapiens, UniProt P28223); test: IP1 agonist functional assay; type: cell-based
Sequence of 5-HT2A (P28223 whole entry): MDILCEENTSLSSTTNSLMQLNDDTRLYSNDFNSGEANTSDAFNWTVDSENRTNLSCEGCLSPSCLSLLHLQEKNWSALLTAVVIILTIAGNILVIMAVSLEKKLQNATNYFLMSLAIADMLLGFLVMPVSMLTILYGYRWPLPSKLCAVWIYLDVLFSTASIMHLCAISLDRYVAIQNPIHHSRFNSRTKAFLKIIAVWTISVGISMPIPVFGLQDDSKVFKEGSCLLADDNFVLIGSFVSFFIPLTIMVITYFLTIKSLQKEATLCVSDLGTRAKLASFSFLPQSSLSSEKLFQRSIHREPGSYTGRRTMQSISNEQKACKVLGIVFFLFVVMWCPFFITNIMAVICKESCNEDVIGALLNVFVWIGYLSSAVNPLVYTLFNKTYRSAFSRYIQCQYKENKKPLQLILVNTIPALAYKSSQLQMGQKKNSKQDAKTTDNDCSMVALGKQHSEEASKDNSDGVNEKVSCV

Sequence of 5-HT2B (P41595 whole entry): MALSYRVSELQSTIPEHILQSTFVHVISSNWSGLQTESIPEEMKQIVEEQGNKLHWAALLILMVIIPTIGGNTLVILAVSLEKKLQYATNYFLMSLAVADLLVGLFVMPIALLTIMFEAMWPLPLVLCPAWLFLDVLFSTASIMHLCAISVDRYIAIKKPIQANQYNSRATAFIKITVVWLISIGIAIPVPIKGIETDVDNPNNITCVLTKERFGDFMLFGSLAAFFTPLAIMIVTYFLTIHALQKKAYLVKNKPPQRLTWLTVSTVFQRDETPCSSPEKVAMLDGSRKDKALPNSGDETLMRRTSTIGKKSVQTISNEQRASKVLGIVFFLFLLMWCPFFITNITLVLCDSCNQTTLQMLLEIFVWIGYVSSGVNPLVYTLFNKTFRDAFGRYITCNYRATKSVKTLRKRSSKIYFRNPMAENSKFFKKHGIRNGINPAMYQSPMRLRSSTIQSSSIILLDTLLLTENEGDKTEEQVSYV

SMILES | EC50 (5-HT2B) | psychedelic activity (number of head twitches in a 10-min period) [1] | EC50 (5-HT2A) | Selectivity (EC50 2B ÷ EC50 2A) (5-HT2A; 5HT2A versus 5HT2B, relative agonism potencies)
CCC(N)Cc1cc(OC)c(C(F)(F)F)cc1OC (stereo not drawn) [compound 29, 1-(2,5-dimethoxy-4-(trifluoromethyl)phenyl) butan-2-amine] | 5.9 µM | lower psychedelic activity | 0.034 µM | 174x
CCC(N)Cc1cc(OC)c(COC)cc1OC (stereo not drawn) [compound 38, 1-(2,5-dimethoxy-4-(methoxymethyl)phenyl)butan-2-amine] |  | lower psychedelic activity | 3.8 µM | 
